Reference: ChEMBL document CHEMBL1629520, “Synthesis and optimization of antitubercular activities in a series of 4-(aryloxy)phenyl cyclopropyl methanols” (Eur J Med Chem, 2010)

Tests used:
Type in all cases: functional
[1] = system: Mycobacterium tuberculosis; test: Antitubercular activity against multi drug-resistant Mycobacterium tuberculosis clinical isolate after 30 days by agar microdilution method
[2] = system: Mycobacterium tuberculosis; test: Antitubercular activity against extensively drug-resistant Mycobacterium tuberculosis clinical isolate after 30 days by agar microdilution method
[3] = system: Mycobacterium tuberculosis; test: Antitubercular activity against RMF-resistant Mycobacterium tuberculosis clinical isolate1 after 30 days by agar microdilution method
[4] = system: Mycobacterium tuberculosis; test: Antitubercular activity against RMF-resistant Mycobacterium tuberculosis clinical isolate2 after 30 days by agar microdilution method

Measured: MIC

OC(c1ccc(OCc2ccc(OCCN3CCCCC3)cc2)cc1)C1CC1 (centres undefined)
12.5 µg/mL: all assays above
